Results reported in patent US20080039481A1, “Seed Dressing for Soya Bean” (BAYER CROPSCIENCE AG, priority 2004, published 2008).

Assays:
Phakopsora Pachyrhizi [1] = test: Seed dressing field trial, action of fluquinconazole against soya bean rust; assay type: in vivo; conditions: natural infection (control 75%)
Procedure: Action of Fluquinconazole against Phakopsora Pachyrhizi Seed Dressing: Fluquinconazole 25 WPC (Wettable Powder) For dressing, the seed was shaken for 1 minute with the seed dressing in a closed plastic bag. The seed was sown in a field (4 plots, plot size in each case 10 m^2, 40 seeds per m^2) and, one day after sowing, artificially irrigated. The natural degree of infection in the control was, on average, 75%. The efficacy is expressed in percent. 0% means an efficacy which corresponds with that of the control, whereas an efficacy of 100% means that no infection is observed.

Phakopsora Pachyrhizi [2] = test: Seed dressing field trial, action of prothioconazole against soya bean rust; assay type: in vivo; conditions: duration 28 days, natural infection (control 75%)
Procedure: Action of Prothioconazole against Phakopsora Pachyrhizi
Seed Dressing: Prothioconazole
For dressing, the seed was shaken for 1 minute with the seed dressing in a closed plastic bag.
The seed was sown in a field (4 plots, plot size in each case 10 m^2, 40 seeds per m^2) and, one day after sowing, artificially irrigated.
The natural degree of infection in the control was, on average, 75%.
The efficacy is expressed in percent. 0% means an efficacy which corresponds with that of the control, whereas an efficacy of 100% means that no infection is observed.

Measured: Efficacy

O=c1c2cc(F)ccc2nc(-n2cncn2)n1-c1ccc(Cl)cc1Cl [fluquinconazole]
100%: Phakopsora Pachyrhizi [1]; 5 g of fluquinconazole/100 kg of seed, duration 28 days | Phakopsora Pachyrhizi [1]; 50 g of fluquinconazole/100 kg of seed, duration 22 days | Phakopsora Pachyrhizi [1]; 50 g of fluquinconazole/100 kg of seed, duration 33 days | Phakopsora Pachyrhizi [1]; 50 g of fluquinconazole/100 kg of seed, duration 37 days

OC(Cc1ccccc1Cl)(Cn1nc[nH]c1=S)C1(Cl)CC1 (stereo not drawn) [prothioconazole]
100%: Phakopsora Pachyrhizi [2]; 5 g of prothioconazole/100 kg of seed | Phakopsora Pachyrhizi [2]; 10 g of prothioconazole/100 kg of seed
